In article PMC3224947, “Inhibition of HIV-1 integrase nuclear import and replication by a peptide bearing integrase putative nuclear localization signal” (Retrovirology, 2009):

Assays:
[1] = system: COS-7 cells (nuclear import); test: Microinjection of FITC-BSA conjugates into COS-7 cells, nuclear import; type: cell-based; details: 37°C, 2 h after injection, fluorescence microscopy (Fig. 3A-E)
Text: Nuclear import transport substrates
Proteins and peptides used in this work as transport substrates were covalently attached to either fluorescein isothiocyanate-labeled bovine serum albumin (FITC-BSA) or biotinylated BSA (Bb) molecules (Sigma). Sulfosuccinimidyl-4-(N-maleimidomethyl) cyclohexane-1-carboxylate (sulfo-SMCC) was used as the cross-linker to give FITC-BSA-protein/peptide and Bb-protein/peptide conjugates, as described previously.
Microinjection of fluorescently labeled transport substrates
FITC-BSA-IN, FITC-BSA-180-IN, FITC-BSA-152-IN, FITC-BSA-NLS-IN, as well as unlabeled FITC-BSA, were microinjected into the cytoplasm of cultured COS-7 cells as described previously. The CompInject AIS2 automated microinjection system (Cell Biology Trading, Hamburg, Germany) was used following the method developed by Graessmann and Graessman. Cultured mammalian cells were incubated at 37°C for 2 h after injection and observed by fluorescence microscopy.

[2] = system: HIV-1 IN (nuclear import); test: Immunostaining of intracellular localization of IN in stably transfected, cell-cycle arrested HeLaP4/IN-expressing cells; type: cell-based; details: aphidicolin 5 μg/ml arrested HeLaP4/IN cells; 150 μM peptide, 6 h; confocal microscopy (Fig. 1)
Protocol: Localization studies of transfected IN in cultured cells by immunostaining
HeLaP4/IN-expressing cells were grown on chamber slides (Nunc). […] Cells were fixed and immunostained essentially as described previously with several modifications. Briefly, after fixation cells were blocked with 5% (w/v) BSA (IgG free) (Jackson) in PBS for 60 min. […] Cells were washed five times with PBS + 0.05% (v/v) Tween 20. Then the cells were incubated with a second antibody, Cy3-conjugated anti-rabbit antibody (Jackson) (1:200) at room temperature for 60 min followed by five washes with PBS + 0.05% Tween 20. For detection of DNA, cells were stained with DAPI according to the manufacturer's protocol. The slides were prepared with mounting media (Bio-Rad) and immunofluorescent cells were detected with a confocal microscope.

[3] = system: HIV-1 IN (nuclear import); test: Immunostaining of IN localization in HIV-1-infected HeLaP4 cells; type: cell-based; details: aphidicolin-arrested HeLaP4, 150 μM peptide 2 h, then HIV-1 MOI 25, fixed 10 h PI (Fig. 7B)
Protocol: Localization studies of IN in HIV-1-infected cultured cells by immunostaining
HeLaP4 cells were grown on chamber slides. […] After incubation with the peptides, cells were infected with wild-type HIV-1 at a multiplicity of infection (MOI) of 25. Cells were fixed and stained as described above with the following modifications: fixation was performed at 10 h PI, the first antibody was used at a dilution of 1:50, the second antibody at a dilution of 1:100.

HIV-1 in TZM-bl cells = test: MAGI assay, HIV-1 infection of TZM-bl cells (β-galactosidase reporter); type: cell-based; details: TZM-bl cells (Fig. 9A, B); dividing/non-dividing not distinguished
Protocol: HIV-1 titration by multinuclear activation of a galactosidase indicator (MAGI) assay
Quantitative titration of HIV-1 was carried out using the MAGI assay, as described previously. Briefly, TZM-b1 cells were grown in 96-well plates at 10^4 cells/well and incubated for 12 h at 37°C. Peptides were then added and after an additional 2 h of incubation, the cells were infected with 50 μl of serially diluted HIV-1. To obtain cell-cycle arrested cells, 5 μg/ml of aphidicolin was added 2 h before the experiment. Cultured cells were fixed 2 days PI and β-galactosidase was estimated. Blue cells were counted under a light microscope at 200× magnification.

[4] = system: HIV-1 replication in Sup-T1 cells; test: Time-of-addition assay, viral p24 production in Sup-T1 cells; type: cell-based; details: non-active peptides, NLS-IN and Pen at 62.5 μM in time-of-addition; sentence cites Fig. 9 as a whole
Protocol: Sup-T1 cells were infected with wild-type HIV-1 at a MOI of 2, and the test compounds were added at different time points after infection (0, 2, 4,..., 24 h). Viral p24 production was determined at 48 h PI [67]. Dextran sulfate was tested at 20 μM, AZT at 2 μM, NLS-IN-Pen, NLS-IN and Pen at 62.5 μM, LEDGF 402-411 at 12.5 μM [41].

IN-importin α complex = test: Co-immunoprecipitation of IN and importin α from HIV-1-infected cells; details: HIV-1-infected H9 lymphocytes, 150 μM peptide 2 h prior to infection, harvested 10 h PI (Fig. 7A)

Substance | nuclear import after microinjection [1] | nuclear import / intracellular localization of IN [2] | intranuclear IN in infected cells [3] | HIV-1 infection inhibition (HIV-1 in TZM-bl cells) | inhibition of HIV-1 (Fig. 9) [4] | IN-importin α interaction (co-IP) (IN-importin α complex)
FITC-BSA: fluorescein isothiocyanate-labeled bovine serum albumin | no nuclear import was observed | – | – | – | – | –
RQIKIWFQNRRMKWKK [Pen] | – | did not have any effect on nuclear import of IN | some intranuclear fluorescently labeled IN could be observed | no inhibition of HIV-1 infection | Inhibition was not observed | neither the SV40-mut-NLS-Pen (or a scrambled NLS-IN [23], not shown) nor the Pen peptide itself promoted dissociation of the IN-importin α complex
